The text below walks through data of patent publication US20240269158A1, “THERAPEUTIC AGENTS AND METHODS FOR TREATMENT OF BARTONELLOSIS” (THE ADMINISTRATORS OF THE TULANE EDUCATIONAL FUND, priority 2021, published 2024).

The structures appear in SMILES notation. Where two headings read alike, the source gives them in different places.

The subject of test [1] is B. henselae. As to conditions: cited from earlier work.
In test [2] the test system is B. henselae and B. vinsonii. The test is described as follows: Cell-free MBC assay, summary over both species. Particulars: both species; Grace's insect media. The format is cell-based, Bartonella. As to the method:
(§1) Briefly, the bacterial culture that was treated with therapeutic agents for 96 hrs was collected into a 1.5 ml microcentrifuge tubes and centrifuged at 7000 rpm for 10 min. The supernatant was removed, and the bacterial pellet was washed with 1×PBS twice. The bacterial pellet was then resuspended in 100 μL of 1×PBS, plated onto blood agar plates and incubated at 37° C. with 5% CO2 for about 14 days. This assay was repeated three times with all the 6 different antibiotics (azlocillin, azithromycin, ceftriaxone, doxycycline, gentamicin and ampicillin) and at different concentrations.
(§2) For this assay, both B. henselae and B. vinsonii were grown in Grace's insect media and were tested against all of the 6 antibiotics (ceftriaxone, doxycycline, gentamicin, azithromycin, azlocillin, ampicillin). […] However, ceftriaxone, gentamicin, azithromycin, and azlocillin were all bactericidal and completely eliminated the growth at concentrations below 10 µg/ml. Table 2 provides comparison of MBCs for B. henselae and B. vinsonii strains in cell-free liquid culture medium determined by incubating the bacteria with antibiotics in a 96-well plate and plating on tryptic soy agar supplemented with 5% sheep blood. Additionally, MBC for B. henselae determined by DH82 cell-based assay (right column) is provided.

Test [3] deals with intracellular B. henselae in DH82 cells. Briefly: DH82 cell-based MBC assay (coculture). Also noted: species or system Bartonella henselae (canine DH82 cells). As to conditions: Bartonella henselae; B. henselae; DH82 cell-based assay; 96 hours; read-out: MBC. As to the method: DH82 are a canine cell line having a macrophage-like morphology. Cells were initially cultured in T75-Flasks (Corning, 430641U) until confluency was reached and were split at a ratio of 1:4 for every 2-3 days. Cells were then seeded into either 24-well cell culture plates (Corning, 3526) for coculture assay or 8-well chamber slides (Millipore #PEGGS0816) for immunofluorescence assays. A total of 50,000 cells were seeded into each well of a 24-well plate or per chamber of an 8-well chamber slide with EMEM with 15% FBS and incubated for 24-48 hours before infections.
(§3) Therapeutic agent stocks were prepared in the following solvents: 10 mg/ml of ceftriaxone (USP), doxycycline (Fisher scientific, D9891-1G), gentamicin (Fisher scientific, 1405-41-0), ampicillin (Fisher scientific, 69-52-3) and azlocillin (Flightpath) in sterile cell culture grade water, whereas 5 mg/ml of azithromycin (Sigma, PZ0007-5MG) was dissolved in sterile cell culture grade DMSO. Antibiotics were then aliquoted and stored at either −80° C. or −20° C. until further use. On the day of assay, these stock concentrations were diluted to 1 mg/ml and 100 μg/ml in the respected bacterial culture media for MIC and cell-free, liquid culture MBC assays. For the DH82 cell-based MBC assay, antibiotics were diluted in EMEM media supplemented with 15% heat inactivated FBS.
Bacteria (B. henselae) that were grown in Grace's insect media, were centrifuged at 7000 rpm for 10 min. The supernatant was removed and washed with 1×PBS for three times. After the washes, pellet was resuspended in EMEM media supplemented with 15% heat inactivated FBS. This bacterial suspension was then added to DH82 cells at a multiplicity of infection (MOI) of 1:50 and incubated for 2 hours. After 2 hours, unbound bacteria were removed by washing the cells with only EMEM media 3 times each 15 min wash. Cells were then incubated with EMEM+15% FBS media at 37° C. with 5% CO2 for 48 hours.
After 48 hrs of incubation, the media was removed from the cells and the therapeutic agents that were diluted in EMEM+15% FBS was added. Each therapeutic agent was diluted at 11 different concentrations (16, 8, 4, 2, 1, 0.5, 0.25, 0.125, 0.062, 0.031, 0.0156 μg/ml), as described above and incubated for 96 hours. […] The bactericidal activity of the therapeutic agents were then evaluated by plating the lysed cells on blood agar plates. Briefly, infected DH82 cells were initially washed for 30 min twice to remove the antibiotics that were added. Later, cells were osmotically lysed by adding 1 ml of sterile ice-cold distilled water and incubated for 5 min on ice. The lysed cells were then plated onto blood agar plates and incubated at 37° C. with 5% CO2 for about 10 days to evaluate the growth of viable B. henselae. This experiment was conducted in duplicates and repeated twice with all 6 antibiotics including 11 different concentrations. The untreated infected cells were used as a positive control and untreated uninfected cells served as a negative control. The CFU counts are presented as average±standard deviation.
To evaluate the bactericidal activity and to determine if these antibiotics could penetrate the eukaryotic […], a new DH82 cell-based coculture system was utilized. […] Uninfected cells stained with primary rabbit B. henselaehyperimmunized polyclonal (primary) and goat anti-rabbit IgG Alexa fluor 594 (secondary) antibodies were used as a negative control. As an isotype control, DH82 cells infected with B. henselae and incubated with primary rabbit IgG were used.

Test [4] concerns B. vinsonii. Briefly: Cell-free, liquid culture MBC assay. In kind it is cell-based, B. vinsonii subsp. berkhoffii. As to conditions: 96 hrs, plated on blood agar, read-out: MBC. As to the method:
(§4) The B. henselae strains used were San Antonio 2, 267HO04, a human clinical isolate and B. vinsonii subsp. berkhoffii. Both the bacteria were initially grown on tryptic soy agar (TSA) supplemented with 5% defibrinated sheep blood plates that were either pre-made (Remel, R01198) or homemade, in a humidified atmosphere at 37° C. with 5% CO2 for 7 days. For the preparation of liquid cultures, an individual well-grown colony from the plate was resuspended in 15 ml Falcon tubes containing 3 mL of either Schneider's insect media supplemented with 10% FBS, or Grace's insect media (Gibco, 11605-094) supplemented with 10% FBS, or BAPGM serum-free liquid media. The cultures grew for 7 more days in the atmosphere as above without shaking. The number of viable bacteria was determined by either plating serial dilutions of the culture on plates for CFU or by live/dead staining. Before every experiment, bacteria were mixed well and passed through 22-gauge needle to break large clumps of bacteria.
as §1, §3, §2

For test [5], the system named is B. vinsonii. The test is described as follows: MIC assay in liquid culture media (OD600). In kind it is cell-based, B. vinsonii subsp. berkhoffii. Particulars: Grace's insect media, read-out: MIC. As to the method:
as §4
(§5) Optical density (OD) of 7-day old bacterial liquid culture that was grown from an individual colony was measured using a spectrophotometer (Bio-Rad, SmartSpec 300, 170-2501). Bacterial culture was then diluted down to an OD of 0.1 ? 3×10^8 cfu/ml with the respective media.
(§6) To determine the MIC of the antibiotics and for the visualization of the bacterial growth, a clear 96-well plate was used. Into each well of a 96-well plate, 50 μl of the 0.1 OD bacterial culture and 50 μl of the liquid media containing antibiotics were added to the wells bringing the total volume to 100 μl of 0.05 OD bacteria (CFU ? 1.5×10^7) in each well. Wells containing only bacteria with solvent used in the dilution of the antibiotics served as a positive control to verify the growth of bacteria. As a negative control, wells containing only media and solvents were used. Each concentration of diluted antibiotic was run in 4 replicates to minimize the error rate. The 96-well plate was covered with the lid and incubated at 37° C. with 5% CO2. OD of the culture was read after 48 hrs and 96 hrs using a hybrid multi-mode microplate reader (Biotek, Synergy H4 hybrid reader) at OD600. The assay was repeated three times.
as §3
(§7) The determination of susceptibility to therapeutic agents was performed in liquid culture media. Six different therapeutic agents were tested with multiple different concentrations against B. henselae and B. vinsonii. Therapeutic agent concentrations tested were as follows: Ceftriaxone 0.001, 0.01, 0.1, 0.3, 0.5, 1, 2, and 5 μg/ml; doxycycline 0.001, 0.01, 0.1, 0.3, 0.5, 1, 2, 5, and 10 μg/ml, gentamicin: 0.01, 0.1, 0.3, 0.5, 1, 2, 4, 8, and 16 μg/ml, and azithromycin: 0.001, 0.005, 0.02, 0.1, 0.3, 0.5, 1, 2, 5, and 10 μg/ml, were tested based on previous antibiotic susceptibility studies. The following azlocillin dilutions were included: 0.001, 0.005, 0.01, 0.02, 0.5, 1, 2, and 5 μg/ml. The ampicillin dilutions included were as follows: 0.001, 0.005, 0.01, 0.02, 0.5, 1, 2, 4, and 8 μg/ml. Both the species of Bartonella were susceptible to all the antibiotics that were used in BAPGM and Grace's culture liquid mediums. […]

For test [6], the system named is B. henselae. The test is described as follows: MIC assay in liquid culture media (OD600). The format is cell-based, Bartonella henselae. As to conditions: Bartonella henselae, read-out: MIC. As to the method: as §4, §5, §6, §3, §7
In test [7] the test system is B. henselae. Briefly: Cell-free, liquid culture MBC assay. The format is cell-based, Bartonella henselae. Particulars: Bartonella henselae, 96 hrs, plated on blood agar, read-out: MBC. As to the method:
as §4, §1, §3
For this assay, both B. henselae and B. vinsonii were grown in Grace's insect media and were tested against all of the 6 antibiotics (ceftriaxone, doxycycline, gentamicin, azithromycin, azlocillin, ampicillin).

Test [8] deals with B. henselae. As to conditions: E-test methodology or agar dilution method; cited from earlier work. (In agar dilution the substance is mixed into plates at graded concentrations.)

As for `O=C(O)c1cn(C2CC2)c2cc(N3CCNCC3)c(F)cc2c1=O` [ciprofloxacin], in test [1], the “activity against growing bacterial culture” value was “effective” and the “activity against stationary phase B. henselae” value is recorded as “very poor activity”.

In general, MBC refers to the lowest tested concentration that kills the bacteria rather than only halting them. As usually defined, the MIC is the least concentration at which growth counts as inhibited. As to `C[C@H]1c2cccc(O)c2C(=O)C2=C(O)[C@]3(O)C(=O)C(C(N)=O)=C(O)[C@@H](N(C)C)[C@@H]3[C@@H](O)[C@@H]21` [Doxycycline, doxycycline], the “concentration that did not completely inhibit the growth of bacteria” value in test [2] is above 10 µg/mL. The minimum bactericidal concentration (MBC) in test [3] was above 16 µg/mL; in test [4], above 10 µg/mL; in test [7], above 10 µg/mL. The MIC in test [5] is 0.01 to 0.1 µg/mL; in test [6] (BAPGM) it was 0.01 to 0.1 µg/mL; in test [6] (Grace's insect media), 0.01 to 0.1 µg/mL; in test [6] (Schneider's insect medium) it was above 0.3 µg/mL.

For the molecule `CO[C@H]1/C=C/O[C@@]2(C)Oc3c(C)c(O)c4c(O)c(c(/C=N/N5CCN(C)CC5)c(O)c4c3C2=O)NC(=O)/C(C)=C\C=C\[C@H](C)[C@H](O)[C@@H](C)[C@@H](O)[C@@H](C)[C@H](OC(C)=O)[C@@H]1C` [rifampin], in test [1], the “activity against growing bacterial culture” value was “effective” and the “activity against stationary phase B. henselae” value is “very poor activity”. Moreover, in test [8], the “inhibition in the growth of B. henselae in vitro” value is recorded as “Inhibition in the growth”.

`CC1(C)S[C@@H]2[C@H](NC(=O)[C@H](N)c3ccccc3)C(=O)N2[C@H]1C(=O)O` [Ampicillin, ampicillin]: the “concentration that did not completely inhibit the growth of bacteria” value in test [2] is above 8 µg/mL. Also, the MBC in test [3] was above 16 µg/mL; in test [4], above 8 µg/mL; in test [7] it was above 8 µg/mL. The minimal inhibitory concentration (MIC) in test [5] fell in the range of 0.01 to 0.02 µg/mL; in test [6] (Grace's insect media) it was 0.02 to 0.1 µg/mL.

Regarding `CC[C@H]1OC(=O)[C@H](C)[C@@H](O[C@H]2C[C@@](C)(OC)[C@@H](O)[C@H](C)O2)[C@H](C)[C@@H](O[C@@H]2O[C@H](C)C[C@H](N(C)C)[C@H]2O)[C@](C)(O)C[C@@H](C)C(=O)[C@H](C)[C@@H](O)[C@]1(C)O` [crythromycin], in test [1], the “activity against growing bacterial culture” value is reported as “effective” and the “activity against stationary phase B. henselae” value is “very poor activity”.
